From patent US20180199575A1, “SUBSTITUTED OXOTETRAHYDROQUINOLINYLPHOSPHINIC ACID AND PHOSPHINIC ACID AMIDES OR SALTS THEREOF AND USE THEREOF TO INCREASE STRESS TOLERANCE IN PLANTS” (priority 2015, published 2018)

Biological target: T1, phosphatase ABI1 via the co-regulator RCAR11/PYR1 (Arabidopsis thaliana, UniProt O49686+P49597)
T1 sequence (O49686 1-191): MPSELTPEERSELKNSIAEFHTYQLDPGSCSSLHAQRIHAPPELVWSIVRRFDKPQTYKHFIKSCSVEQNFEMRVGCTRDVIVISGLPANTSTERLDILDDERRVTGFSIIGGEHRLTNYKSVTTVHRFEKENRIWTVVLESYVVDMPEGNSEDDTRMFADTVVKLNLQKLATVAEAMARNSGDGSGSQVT
T1 sequence (P49597 1-434): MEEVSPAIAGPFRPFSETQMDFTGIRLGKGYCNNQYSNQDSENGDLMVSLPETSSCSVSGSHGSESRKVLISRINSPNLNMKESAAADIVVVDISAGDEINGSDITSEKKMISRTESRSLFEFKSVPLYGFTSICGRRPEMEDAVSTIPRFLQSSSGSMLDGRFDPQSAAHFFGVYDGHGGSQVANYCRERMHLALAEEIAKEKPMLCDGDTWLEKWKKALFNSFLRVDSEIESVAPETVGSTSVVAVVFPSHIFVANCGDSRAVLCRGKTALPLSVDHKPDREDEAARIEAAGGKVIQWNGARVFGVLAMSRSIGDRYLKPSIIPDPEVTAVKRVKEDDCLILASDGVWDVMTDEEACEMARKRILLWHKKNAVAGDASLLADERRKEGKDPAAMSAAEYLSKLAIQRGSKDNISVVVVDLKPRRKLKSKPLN
Experiment: In vitro assay: inhibition of the phosphatase ABI1 via the co-regulator RCAR11/PYR1 (dephosphorylation of 4-methylumbelliferyl phosphate, fluorescence)
Type: biochemical
Settings: 5 μM substance in a solution of DMSO and water, MUP substrate
Description: Effects of the phytohormone abscisic acid (ABA) on the behavior of plants under abiotic stress and the mechanism of action of ABA are described in the literature (cf. Abrams et al., WO97/23441, Park et al. Science, 2009, 324, 1068; Grill et al. Science, 2009, 324, 1064; Tanokura et al. Biophysics, 2011, 7, 123; Schroeder et al. Plant J. 2010, 61, 290). Therefore, it is possible with the aid of a suitable in vitro test system to derive a correlation between the action of ABA and the stress response of a plant under abiotic stress. In the event of water deficiency (drought stress), plants form the phytohormone abscisic acid (ABA). […]
The assay described hereinafter utilizes the inhibition of the phosphatase ABI1 via the co-regulator RCAR11/PYR1 aus Arabidopsis thaliana. For the determination of activity, the dephosphorylation of 4-methylumbelliferyl phosphate (MUP) was measured at 460 nm. […]
Enzyme buffer mix and substrate mix were made up 5 minutes prior to the addition and warmed to a temperature of 35° C. […] Finally, a relative fluorescence measurement was made at 35° C. with a BMG Labtech “POLARstar Optima” microplate reader using a 340/10 nm excitation filter and a 460 nm emission filter. […]

Question: How did the ABI1 inhibition turn out when `CC1=CC(=O)CC(C)(C)[C@@]1(O)/C=C/C(C)=C\C(=O)O` [abscisic acid] was run?
Answer: ++++ (inhibition≥90%)
